Among the test systems are HCC 2998; NCI-H23; Malme-3M; MDA-MB-231; UACC-62; K562; M14; OVCAR-3; SNB-19; SK-MEL-5; RPMI-8226; HL-60; DU-145; OVCAR-5; HCT-15; NCI-H522; SF-539; HOP-92; KM12.
Common to all, as to assay: growth of human tumour cells (NCI), 48 h

Molecules are shown by their SMILES.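 In this assay, cells in 96-well plates receive the compound at five concentrations for 48 hours. Endpoints are linearly interpolated between the surrounding concentrations. GI50 marks 50% less growth.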 Activity calls are given as the source filed them. Cut-off read from the data, not from the text of the source: active = GI50 up to about 1.1 µM and inactive = higher. A value given as a limit tells only on which side of the number the result lay.

Consider `Cc1cc(S(=O)(=O)Nc2nc(Nc3ccc4ccccc4c3)n[nH]2)c(S)cc1Cl`, for which the GI50 is 61.4 µM (inactive) with HCC 2998; 43 µM (inactive) in the assay with NCI-H23; 89.7 µM (inactive) in the assay with Malme-3M; 92.9 µM (inactive) in the assay with MDA-MB-231; 66.4 µM (inactive) with UACC-62; > 100 µM (inactive) with K562. Moreover, the GI50 with M14 was 46.8 µM (inactive); in the assay on OVCAR-3 it was 23.2 µM (inactive); in the assay with SNB-19, 49.3 µM (inactive); with SK-MEL-5, 22.5 µM (inactive); in the assay on RPMI-8226 it was > 100 µM (inactive); in the assay on HL-60 it was > 100 µM (inactive). Moreover, the GI50 is 54.3 µM (inactive) in the assay on DU-145; 73.8 µM (inactive) in the assay with OVCAR-5; 42.3 µM with HCT-15; 30.3 µM (inactive) with NCI-H522; 14 µM (inactive) in the assay with SF-539; 52.5 µM (inactive) in the assay with HOP-92. The GI50 in the assay with KM12 was 25.4 µM (inactive).
As for `Cc1cccc(/N=N/c2ccc(O)c(CN(C)C)c2)c1`, the GI50 in the assay on HCC 2998 is 16.4 µM (inactive); with NCI-H23 it was 57.8 µM (inactive); in the assay with Malme-3M, 10 µM (inactive); in the assay with MDA-MB-231, 5.6 µM (inactive); in the assay on UACC-62, 8.95 µM (inactive); in the assay on K562, 3.33 µM (inactive). The GI50 in the assay with M14 was 27.4 µM (inactive); with OVCAR-3, 17.2 µM (inactive); with SNB-19, 41.9 µM (inactive); with SK-MEL-5, 14 µM (inactive); in the assay with RPMI-8226, 32 µM (inactive); in the assay on HL-60 it was 23.4 µM (inactive). Moreover, the GI50 is > 10 µM (inactive) in the assay on DU-145; 33.8 µM (inactive) in the assay on OVCAR-5; 11.2 µM in the assay on HCT-15; 10.5 µM (inactive) with NCI-H522; 18.2 µM (inactive) in the assay with SF-539; 6.17 µM (inactive) in the assay on HOP-92. Moreover, the GI50 with KM12 is 13.4 µM (inactive).
With `CCCCCCCCCCCCCCCCCCNc1ccn(C2OC(COP(=O)(O)OCC3OC(n4cc(C)c(=O)[nH]c4=O)CC3F)C(O)C2O)c(=O)n1` (configuration not stated), the GI50 with HCC 2998 was 5.7 µM (inactive); in the assay with NCI-H23, 8.65 µM (inactive); in the assay with Malme-3M, 15 µM (inactive); with MDA-MB-231 it was 10.7 µM (inactive); in the assay with UACC-62, 6.24 µM (inactive); in the assay with K562, 8.55 µM (inactive). The GI50 is 8.17 µM (inactive) in the assay with M14; 7.24 µM (inactive) with OVCAR-3; 6.5 µM (inactive) with SNB-19; 9.89 µM (inactive) in the assay on SK-MEL-5; 3.52 µM (inactive) with RPMI-8226; 5.46 µM (inactive) with HL-60. In addition, the GI50 is 11.4 µM (inactive) in the assay with DU-145; 2.56 µM (inactive) in the assay on OVCAR-5; 6.01 µM with HCT-15; 4.29 µM (inactive) in the assay with NCI-H522; 9.46 µM (inactive) in the assay on SF-539; 18.4 µM (inactive) in the assay on HOP-92. The GI50 in the assay with KM12 was 5.22 µM (inactive).
For the molecule `O=[N+]([O-])c1ccc2sc(/C=N/c3ccccn3)cc2c1`, the GI50 with HCC 2998 was > 100 µM (inactive); with NCI-H23 it was 98.2 µM (inactive); with Malme-3M, > 100 µM (inactive); with MDA-MB-231, 84.1 µM (inactive); in the assay with UACC-62 it was 99.1 µM (inactive); in the assay on K562, 26.8 µM (inactive). Moreover, the GI50 is > 100 µM (inactive) in the assay with M14; 41.8 µM (inactive) with OVCAR-3; > 100 µM (inactive) in the assay with SNB-19; > 100 µM (inactive) with SK-MEL-5; 22.6 µM (inactive) in the assay on RPMI-8226; 28.5 µM (inactive) in the assay on HL-60. In addition, the GI50 in the assay with DU-145 was 77.6 µM (inactive); in the assay on OVCAR-5, > 100 µM (inactive); with HCT-15, 51.4 µM; in the assay on NCI-H522, > 100 µM (inactive); in the assay with SF-539, > 100 µM (inactive); in the assay with HOP-92, 69.8 µM (inactive). Also, the GI50 in the assay with KM12 is 64.6 µM (inactive).
Turning to `O=C(O)CN1CCNCCN(CC(=O)O)CC1`, the GI50 was 10.6 µM (inactive) in the assay on HCC 2998; 3.25 µM (inactive) in the assay with NCI-H23; 2.35 µM (inactive) with Malme-3M; > 34 µM (inactive) in the assay with MDA-MB-231; 12.6 µM (inactive) in the assay on UACC-62; 3.76 µM (inactive) with K562. The GI50 in the assay with M14 is 25.7 µM (inactive); in the assay with OVCAR-3, 6.49 µM (inactive); with SNB-19 it was > 100 µM (inactive); in the assay on SK-MEL-5, 5.48 µM (inactive); in the assay on RPMI-8226, 7.23 µM (inactive); with HL-60, 3.08 µM (inactive). The GI50 in the assay on DU-145 is > 100 µM (inactive); with OVCAR-5, > 22.1 µM (inactive); in the assay with HCT-15, 3.79 µM; in the assay with NCI-H522, 3.28 µM (inactive); with SF-539 it was 13 µM (inactive); in the assay on HOP-92 it was 8.38 µM (inactive). Further, the GI50 in the assay on KM12 is 16.8 µM (inactive).
Turning to `O=C(Cn1c(=O)oc2ccc(C(=O)c3ccccc3Cl)cc21)c1ccc([N+](=O)[O-])cc1`, the GI50 in the assay on HCC 2998 was 17.9 µM (inactive); in the assay on NCI-H23 it was 25.4 µM (inactive); in the assay with Malme-3M, 25.5 µM (inactive); with MDA-MB-231 it was 20.8 µM (inactive); in the assay with UACC-62, 12 µM (inactive); with K562, 14.9 µM (inactive). The GI50 in the assay with M14 was 18.4 µM (inactive); in the assay on OVCAR-3, 17 µM (inactive); in the assay with SNB-19, 40.5 µM (inactive); with SK-MEL-5, 16.3 µM (inactive); with RPMI-8226, 9.51 µM (inactive); in the assay on HL-60, 11.2 µM (inactive). Moreover, the GI50 is 42 µM (inactive) in the assay on DU-145; 47.6 µM (inactive) in the assay on OVCAR-5; 17.7 µM in the assay with HCT-15; 14.9 µM (inactive) with NCI-H522; 28.8 µM (inactive) in the assay with SF-539; 27.5 µM (inactive) in the assay on HOP-92. The GI50 with KM12 is 20.1 µM (inactive).
On to `CC1=CC(O)C(C(O)(C(F)(F)F)C(F)(F)F)C(C)(C)C1` (configuration not stated), for which the GI50 in the assay with HCC 2998, in the assay on NCI-H23, in the assay with Malme-3M, with MDA-MB-231, in the assay with UACC-62 and in the assay on K562 was > 10 µM (inactive) throughout. Further, the GI50 is < 0.001 µM (active) in the assay on M14; > 10 µM (inactive) with OVCAR-3; > 10 µM (inactive) with SNB-19; 0.0371 µM (active) in the assay with SK-MEL-5; > 10 µM (inactive) in the assay on RPMI-8226; > 10 µM (inactive) in the assay with HL-60. The GI50 is > 10 µM (inactive) with DU-145; > 10 µM (inactive) in the assay with OVCAR-5; more than 10 µM in the assay on HCT-15; > 10 µM (inactive) with NCI-H522; > 10 µM (inactive) in the assay with SF-539; > 10 µM (inactive) with HOP-92. For the same molecule, the GI50 in the assay with KM12 is > 10 µM (inactive).
For `CC(C)(C)c1cc(C(C)(C)C)c2c(c1O)OC(=O)CS2`, the GI50 was 3.03 µM (inactive) in the assay with HCC 2998; 4.15 µM (inactive) in the assay with NCI-H23; 20.8 µM (inactive) in the assay on Malme-3M; 16.2 µM (inactive) in the assay on MDA-MB-231; 2.2 µM (inactive) in the assay on UACC-62; 3.16 µM (inactive) in the assay on K562. In addition, the GI50 in the assay on M14 was 7.1 µM (inactive); with OVCAR-3, 3.69 µM (inactive); in the assay with SNB-19, 5.2 µM (inactive); in the assay with SK-MEL-5, 2.88 µM (inactive); in the assay with RPMI-8226, 21.1 µM (inactive); with HL-60, 3.62 µM (inactive). For the same molecule, the GI50 is 15.7 µM (inactive) with DU-145; 5.85 µM (inactive) with OVCAR-5; 3.66 µM in the assay on HCT-15; 4.06 µM (inactive) in the assay with NCI-H522; 3.72 µM (inactive) in the assay on SF-539; 9.59 µM (inactive) with HOP-92. Further, in the assay with KM12, the GI50 is 4.44 µM (inactive).
